# In US20250032569A1, “COMPOSITION, IN PARTICULAR COSMETIC FORMULATION, COMPRISING A VERBASCOSIDE EXTRACT” (MEDENA AG, priority 2021, published 2025):
# Assays:
# [1] = organic (synthetic) chemical sunscreens, Table 1; cited from earlier work
# [2] = In vitro spectrophotometric SPF calculated by the Sayre equation (Eq. 1); format: physicochemical
# Method: Each sample (1 ml) was placed in a 1 cm quartz cell. The absorbance was measured between 250-600 nm at an interval of every 1 nm using a Varian UV/Vis spectrophotometer (Cary 50 Scan). The following parameters were measured and calculated for each sample assuming standard application to the skin—2 mg/cm^2: • the SPF values. • the critical wavelength λC • the UVA/UVB ratio 1. […]
# Each sample (1 ml) was placed in a 1 cm quartz cell. The absorbance was measured between 250-600 nm at an interval of every 1 nm using a Varian UV/Vis spectrophotometer (Cary 50 Scan). The following parameters were measured and calculated for each sample assuming standard application to the skin—2 mg/cm^2: • the SPF values. • the critical wavelength λC • the UVA/UVB ratio
# The SPF values in vitro were calculated according to the method described by Sayre et al., (Sayre, R M; Agin, P P; LeVee, G J; Marlowe, E. A comparison of in vivo and in vitro testing of sunscreening formulas, Photochem. Photobiol. 1979, 29, 559-566). The calculation was done using Equation 1: […]
# where Ss(λ) is the spectral irradiance, Ser(λ) is the CIE erythema action spectrum and T(λ) is the transmission of the sunscreen. The values of Ss(λ) and Ser(λ) were taken from the literature (B. L. Diffey, J. Robson. A new substrate to measure sunscreen protection factors throughout the ultraviolet spectrum, J. Soc. Cosmet. Chem. 1989, 40, 127-133). […]
# SPF values were calculated using Eq. 1 for sun protective cosmetics applied at 2 mg/cm^2 (standard application).
# The same methods and equations as in the case of plant extracts were applied.
# Solutions of sunscreens at concentrations 0.001% were prepared in duplicate and UV-visible absorption spectra were recorded over the range of 250-600 nm (FIG. 1). On the basis of these spectra, the transmission of the sunscreen (T) was found from monochromatic absorbance values at wavelength λ: T=10^−A(λ).
# The SPF in vitro was calculated according to the method described by Sayre et al., (Sayre, R M; Agin, P P; LeVee, G J; Marlowe, E. A comparison of in vivo and in vitro testing of sunscreening formulas, Photochem. Photobiol. 1979, 29, 559-566) following equation 1: […]
# where Ss(λ) is the spectral irradiance, Ser(λ) the CIE erythema action spectrum and T(λ) the trans-mission of the sunscreen. Data for Ss(λ) and Ser(λ) are available in the literature (B. L. Diffey, J. Robson. A new substrate to measure sunscreen protection factors throughout the ultraviolet spectrum, J. Soc. Cosmet. Chem. 1989, 40, 127-133).
# The SPF values were calculated using Eq 1 with the application conditions 2 mg/cm^2 (Standard application recommended by the European Agency).
# The SPF value for lotions were calculated using Eq. 1 for three application conditions at 2 mg/cm^2 (standard application), 2.5 mg/cm^2 and 3 mg/cm^2. In the same Table 22, critical wavelength and the UVA/UVB ratios are shown.
# [3] = SPF calculated by modified Sayre method; format: physicochemical
# Source text: In the following Table 20, there are SPF values obtained in vitro spectrophotometrically, which have been calculated by a classical Sayre method (Sayre, R M; Agin, P P; LeVee, G J; Marlowe, E. A comparison of in vivo and in vitro testing of sunscreening formulas, Photochem. Photobiol. 1979, 29, 559-566) and modified Sayre method, which gives results similar to those obtained in the in vivo tests recommended by COLIPA.
# • (1) For water insoluble chemical filters, the modified Sayre method gives results close to those calculated by Simulator-Calculator (BASF) and the in vivo tests. The Simulator-Calculator uses the modified Sayre method assuming an exponentiation equal to 0.827 (X^0.827). • (2) For water soluble natural filters, the same modified Sayre method would give results close to those obtained by the in vivo tests (predicted by Simulator-Calculator). Examples of Cosmetic Compositions with Fully Natural Sun Protective Factors • 1. Sun protective lotion SPF 50+, high UV-A protection • 2. Sun protective cream SPF 50+, high UV-A protection • 3. Sun protective serum for pregnant and milking women SPF 50+, high UV-A protection • 4. Sun protective milk for babies SPF 50+, high UV-A protection • 5. Sun protective lotion SPF 20-30, high UV-A protection for people with highly sensitive skin E. Analysis of Sun Protective Parameters of Two Lotions and Cream Containing Lippia citriodora Extract with 40% of Verbascoside.
# [4] = UVA/UVB ratio from absorption spectra (Eq. 3) and Boots UVA Star Rating; format: physicochemical
# Method: Critical Wavelength (λC) and the UVA/UVB ratios were also calculated from the absorption spectra and were collected in Table 2. […] According to these International indications, aqueous solutions of Haberlea rhodopensis with different concentrations of myconoside can be attributed to the group of good protection (2 UVA Star Rating).
# In order to further characterize solutions as skin photo-protectors from UVA, the UVA/UVB ratio was calculated using Eq. 3: […]
# In order to characterize the ability of creams to protect skin against UVA the UVA/UVB ratio was calculated using Eq. 3: […]
# [5] = Critical wavelength (λC) from absorption spectra (Eq. 2); format: physicochemical; settings: for critical wavelength: chemical sunscreen, no concentration stated
# Method: The Critical Wavelength λC is the wavelength, where the area under the absorbance spectrum for the irradiated product from 290 nm to λC is equal to 90% of the integral value of the absorbance spectrum from 290 to 400 nm and was calculated using Eq. 2:
# where A (λ)=monochromatic absorbance values at wavelength λ. The critical wavelength was determined for all samples in order to assess a degree of UVA protection. In cases where the critical wavelength is lower than 370 nm, the protection from UVA is less evident.
# The Critical Wavelength λC value for the test product was defined as that wavelength where the area under the absorbance spectrum of the sample from 290 nm to λC is 90% of the integral of the absorbance spectrum from 290 to 400 nm and is calculated using Eq. 2:
# [formula] • A(λ)=monochromatic absorbance values at wavelength λ
# [6] = Photo-stability under solar imitating UVA+UVB irradiation; format: physicochemical; settings: absorption spectra without and after up to 40 min irradiation
# [7] = UV filter 0.5% in sun protective cosmetic (Table 20)
# [8] = UV filter 1.0% in sun protective cosmetic (Table 20)
# [9] = UV filter 2.5% in sun protective cosmetic (Table 20)
# [10] = UV filter 5% in sun protective cosmetic (Table 20)
# [11] = chemical UV filter 0.5% in sun protective solution (Tables 12-19)
# [12] = chemical UV filter 1% in sun protective solution (Tables 12-19)
# [13] = chemical UV filter 2.5% in sun protective solution (Tables 12-19)
# [14] = chemical UV filter 5% in sun protective solution (Tables 12-19)
# [15] = UV filter 0.5% in sun protective cosmetic
# [16] = UV filter 1.0% in sun protective cosmetic
# [17] = UV filter 2.5% in sun protective cosmetic
# [18] = UV filter 5% in sun protective cosmetic
# [19] = chemical UV filter 0.5% in sun protective solution
# [20] = chemical UV filter 1% in sun protective solution
# [21] = chemical UV filter 2.5% in sun protective solution
# [22] = chemical UV filter 5% in sun protective solution
# [23] = chemical UV filter 10% in sun protective solution
molecule,measurement,setting,value
CC1(C)C2CCC1(CS(=O)(=O)O)C(=O)C2=Cc1ccc(C=C2C(=O)C3(CS(=O)(=O)O)CCC2C3(C)C)cc1 [Mexoryl SX],Absorbs UV-A,[1],UV-A
Cc1cc(CC(C)C[Si](C)(O[Si](C)(C)C)O[Si](C)(C)C)c(O)c(-n2nc3ccccc3n2)c1 (stereo not shown) [Mexoryl XL],Absorbs UV-A,[1],UV-A
same,Absorbs UV-B,[1],UV-B
O=S(=O)([O-])c1cc(S(=O)(=O)O)cc2[nH]c(-c3ccc(-c4nc5c(S(=O)(=O)[O-])cc(S(=O)(=O)O)cc5[nH]4)cc3)nc12.[Na+].[Na+] [Neoheliopan AP],Absorbs UV-A,[1],UV-A
CC(C)(C)CC(C)(C)c1cc(Cc2cc(C(C)(C)CC(C)(C)C)cc(-n3nc4ccccc4n3)c2O)c(O)c(-n2nc3ccccc3n2)c1 [Tinosorb M],Absorbs UV-B,[1],UV-B
CCCCC(CC)COc1ccc(-c2nc(-c3ccc(OC)cc3)nc(-c3ccc(OCC(CC)CCCC)cc3O)n2)c(O)c1 (stereo not shown) [Tinosorb S],Absorbs UV-A,[1],UV-A
same,Absorbs UV-B,[1],UV-B
CCCCC(CC)COC(=O)c1ccc(Nc2nc(Nc3ccc(C(=O)NC(C)(C)C)cc3)nc(Nc3ccc(C(=O)OCC(CC)CCCC)cc3)n2)cc1 (stereo not shown) [Uvasorb HEB],Absorbs UV-B,[1],UV-B
CCCCCCOC(=O)c1ccccc1C(=O)c1ccc(N(CC)CC)cc1O [Uvinul A plus],Absorbs UV-A,[1],UV-A
"CCCCC(CC)COC(=O)C(C#N)=C(c1ccccc1)c1ccccc1 (stereo not shown) [octocrylene, Octocrylene]",SPF values calculated by the Sayre equation,[2]; [7],1.9
same,SPF values calculated by the Sayre equation,[2]; [8],4
same,SPF values calculated by the Sayre equation,[2]; [9],13
same,SPF values calculated by the Sayre equation,[2]; [10],26.5
same,SPF values calculated by the Sayre equation,[2]; UV filter 10% in sun protective cosmetic (Table 20),36.8
same,SPF values,[2]; [11],10
same,SPF values,[2]; [12],25
same,SPF values,[2]; [13],42
same,SPF values,[2]; [14],61
same,SPF values,[2]; chemical UV filter 10% in sun protective solution (Tables 12-19),90
same,SPF values calculated by Modified Sayre,[3]; [15],1.6
same,SPF values calculated by Modified Sayre,[3]; [16],2.6
same,SPF values calculated by Modified Sayre,[3]; [17],4.7
same,SPF values calculated by Modified Sayre,[3]; [18],7.4
same,SPF values calculated by Modified Sayre,[3]; UV filter 10% in sun protective cosmetic,11.7
same,UVA/UVB,[4]; [19],0.22
same,UVA/UVB,[4]; [20],0.22
same,UVA/UVB,[4]; [21],0.22
same,UVA/UVB,[4]; [22],0.22
same,UVA/UVB,[4]; [23],0.22
same,ratio UVA/UVB,"[4]; chemical sunscreen, no concentration stated",0.22
same,Critical wavelength (λC),[5]; [19],342 nm
same,Critical wavelength (λC),[5]; [20],342 nm
same,Critical wavelength (λC),[5]; [21],342 nm
same,Critical wavelength (λC),[5]; [22],342 nm
same,Critical wavelength (λC),[5]; [23],342 nm
same,critical wavelength,[5],342 nm
"CCCCC(CC)COC(=O)C=Cc1ccc(OC)cc1 (stereo not shown) [octyl methoxycinnamate, Ethylhexyl methoxycinnamate]",Photo-stability to solar imitating UVA+UVB irradiation,[6],HIGHLY unstable
butylmethoxydibenzoylmethane [avobenzone],Photo-stability to solar imitating UVA+UVB irradiation,[6],HIGHLY unstable
same,SPF values calculated by the Sayre equation,[2]; [7],1.5
same,SPF values calculated by the Sayre equation,[2]; [8],2.0
same,SPF values calculated by the Sayre equation,[2]; [9],6.1
same,SPF values calculated by the Sayre equation,[2]; [10],32
same,SPF values,[2]; [11],1.9
same,SPF values,[2]; [12],3.0
same,SPF values,[2]; [13],19
same,SPF values,[2]; [14],297
same,SPF values calculated by Modified Sayre,[3]; [15],1.5
same,SPF values calculated by Modified Sayre,[3]; [16],2.1
same,SPF values calculated by Modified Sayre,[3]; [17],3.2
same,SPF values calculated by Modified Sayre,[3]; [18],4.4
same,Critical wavelength (λC),[5]; [19],385 nm
same,Critical wavelength (λC),[5]; [20],385 nm
same,Critical wavelength (λC),[5]; [21],385 nm
same,Critical wavelength (λC),[5]; [22],385 nm
same,critical wavelength,[5],385 nm
